Values of other authors as cited in paper PMC5936891, “A focused library synthesis and cytotoxicity of quinones derived from the natural product bolinaquinone” (Royal Society Open Science, 2018).

What was measured:
[1] = test system: leukaemia L-1210; design: method as in ref 22 = [22]; 22 Shigemori H , Madono T , Sasaki T , Mikami Y , Kobayashi JI 1994 Nakijiquinones A and B, new antifungal sesquiterpenoid quinones with an amino acid residue from an Okinawan marine sponge . Tetrahed; settings: read-out: GI50 leukaemia L-1210; cited from earlier work
[2] = test system: epidermoid KB cell line; design: method as in ref 22 = [22]; 22 Shigemori H , Madono T , Sasaki T , Mikami Y , Kobayashi JI 1994 Nakijiquinones A and B, new antifungal sesquiterpenoid quinones with an amino acid residue from an Okinawan marine sponge . Tetrahed; settings: cited from earlier work
[3] = test system: HepG2 hepatoma cancer cell line; design: method as in ref 23 = [23]; 23 Jiao W-H , Xu T-T , Yu H-B , Mu F-R , Li J , Li Y-S , Yang F , Han B-N , Lin H-W 2014 Dysidaminones A-M, cytotoxic and NF-B inhibitory sesquiterpene aminoquinones from the South China Sea sponge, D; settings: cited from earlier work
[4] = test system: NCI-H929 myeloma; design: method as in ref 23 = [23]; 23 Jiao W-H , Xu T-T , Yu H-B , Mu F-R , Li J , Li Y-S , Yang F , Han B-N , Lin H-W 2014 Dysidaminones A-M, cytotoxic and NF-B inhibitory sesquiterpene aminoquinones from the South China Sea sponge, D; settings: cited from earlier work

CC1=CCC[C@H]2[C@](C)(CC3=C(O)C(=O)C=C(NCC(=O)O)C3=O)[C@@H](C)CC[C@]12C [compound 5, nakijiquinone A]
GI50 [1]: 9460 nM | GI50 epidermoid KB [2]: 18920 nM

CC1=CCC[C@H]2[C@](C)(CC3=CC(=O)C=C(NCC(C)C)C3=O)[C@@H](C)CC[C@]12C [compound 6, dysidaminone E-5]
GI50 [3]: 940 nM

CC1=CCC[C@H]2[C@](C)(CC3=CC(=O)C=C(NCCc4ccccc4)C3=O)[C@@H](C)CC[C@]12C [compound 7, 18-phenethylaminoavarone]
GI50 [4]: 1760 nM
